Like-named read-outs stand apart in the source and are kept apart here. Blank lines part the entries; values can stand above or below the compound they belong to.
Columns and labels:
[1] = cited from earlier work
[2] = Low pressure (175 psig) package boiler study of DEAE and DMAPA (Table IV); conditions: for Feedwater concentration / Steam concentration: 175 psig boiler
Description: A study of the effects of a relatively low pressure boiler on DEAE and DMAPA was undertaken. The study was conducted in a 175 psig package boiler. The boiler was operated at 41 cycles with no condensate return so that the amine present in the steam could only come from the feedwater and not from the return of condensate. DEAE and DMAPA were-fed simultaneously at 50 ppm to the feedwater. The boiler was operated overnight to allow the system to equilibrate. […] The concentrations were determined by gas chromatography.

[3] = Lab scale test boiler, DMAPA feed, formation of DMA and TMA in feedwater (GC), 1,450 psig; assay type: physicochemical
[4] = as above; assay type: physicochemical; conditions: for Feedwater composition: feedwater initially 200 ppm DMAPA; for Feedwater conductivity / Feedwater pH: DMAPA feed
Source text: The following lab scale experiment verified the formation of DMA and TMA.
A research scale, electrically heated test boiler was charged with nitrogen sparged (a mechanical deaeration), demineralized water. The water was supplied by high pressure pump to a D-configuration stainless steel boiler having an internal volume of approximately 5 liters. Two 4000 watt Incoloy 800 resistance heaters produced a steam rate of approximately 17 lbs/hr at a steam pressure of 1,450 psig (correspond to a temperature of 593° F.).
Cycles of concentration were held at approximately 15 by controlling boiler blowdown rate to 1.1 lbs/hr. The saturated steam produced was routed back into the feed tank and mixed with the original feedwater. This follows common industry practice where for economy the maximum amount of condensate is returned to the boiler as feedwater. The feedwater initially contained 200 ppm of DMAPA (Aldrich 99%) and 1.4 ppm hydrazine for deaeration. The feedwater (to which the condensed steam was recycled) was analyzed by gas chromatography and DMA and TMA were quantitated by comparison to external standards.

[5] = Table I properties of amines: basicity, distribution ratios, flash point; assay type: physicochemical
Source text: The preferred relatively high molecular weight amine of the present invention is dimethylaminopropylamine (DMAPA) or N,N-dimethyl-1,3-propanediamine. […] When DMAPA is subjected to common boiler temperatures and pressures of from 100, and preferably over 200, to 1500 psig, the DMAPA will partially decompose. The partial decomposition of DMAPA forms DMA and TMA.

[6] = Research boiler decomposition, 200 to 600 psig (FIG. 1); assay type: physicochemical; conditions: virtually any pressure, especially above about 200 psig
Source text: Additional testing in a research boiler was undertaken at pressures of from 200 to 600 psig in 100 psig steps. The high molecular weight amines tested included DMAPA, DEAE and MOPA. The boiler system was operated at 100% condensate return at 15 cycles. Feed tank, steam and blowdown samples were taken at the end of each run and analyzed by gas chromatograph (GC).
A condensate modeling system was used to simulate the boiler runs and estimate. The theoretical steam concentration possible if no amine decomposition occurred. Using the theoretical concentration and the analytical value obtained from GC analysis, the percent decomposition was calculated and the results summarized in FIG. 1.

[7] = Decomposition of feed amine at boiler conditions from steam concentration (Table III)
Description: The effects of common boiler/condensate temperature and pressure on relatively high molecular weight amine was studied. The relatively high molecular weight amines methoxypropylamine (MOPA) and DMAPA were exposed to boiler condition and the steam concentrations of the feed amines measured. From this information the percent decomposition was calculated.

[8] = Additional testing of decomposition products of high molecular weight amines; assay type: physicochemical; conditions: for formation from DMAPA: additional testing with DMAPA
[9] = cited from earlier work; remark: listed apart in the source

Compound: CCNCC [DEA, diethylamine]
Distribution ratio ([1]; at 1000 psig): 28

Compound: CCN(CC)CCO [DEAE, diethylaminoethanol]
hydrothermal stability ([2]; lower saturation pressures of this test (175 psig boiler)): hydrothermally stable

Compound: CNC [DMA, dimethylamine]
volatility relative to DMAPA [3]: significantly more volatile than DMAPA
Feedwater composition ([4]; 22 hrs., sample 12): 5 ppm
Feedwater composition ([4]; 46 hrs., sample 13): 11 ppm
Feedwater composition ([4]; 79 hrs., sample 14): 20 ppm
Feedwater composition ([4]; 94 hrs., sample 15): 25 ppm
Flash Pt. [5]: 60 °F
Distribution ratio ([5]; 100 psig): 2.4
Distribution ratio ([5]; 200 psig): 2.1
Distribution ratio ([5]; 600 psig): 3.3
Basicity (pKa) ([5]; single or first pKa): 10.8
pKa [1]: 10.77
Distribution ratio (DR) ([1]; pressure not stated): 2-5

Feedwater concentration ([2]; time 1): 44 ppm
Steam concentration ([2]; time 1): 42 ppm
Feedwater concentration ([2]; time 2): 44 ppm
Steam concentration ([2]; time 2): 42 ppm
Feedwater concentration ([2]; time 3): 45 ppm
Steam concentration ([2]; time 3): 42 ppm
Feedwater concentration ([2]; time 4): 44 ppm
Steam concentration ([2]; time 4): 42 ppm
Feedwater concentration ([2]; time 5): 46 ppm
Steam concentration ([2]; time 5): 42 ppm
Feedwater concentration ([2]; time 6): 44 ppm
Steam concentration ([2]; time 6): 42 ppm
Feedwater concentration ([2]; time 7): 38 ppm
Steam concentration ([2]; time 7): 40 ppm
decomposition compared to MOPA [6]: significantly higher than MOPA
Steam concentration ([7]; 200 psig, feedwater 106 ppm): 98.4 ppm
Steam concentration ([7]; 600 psig, feedwater 106 ppm): 78.8 ppm
Steam concentration ([7]; 900 psig, feedwater 106 ppm): 68.7 ppm
Steam concentration ([7]; 1450 psig, feedwater 106 ppm): 37.3 ppm
Feedwater conductivity ([4]; 22 hrs.): 160 uS
Feedwater pH ([4]; 22 hrs.): 10.35
Feedwater conductivity ([4]; 46 hrs.): 195 uS
Feedwater pH ([4]; 46 hrs.): 10.40
Feedwater conductivity ([4]; 79 hrs.): 200 uS
Feedwater pH ([4]; 79 hrs.): 10.65
Feedwater conductivity ([4]; 94 hrs.): 230 uS
Feedwater pH ([4]; 94 hrs.): 10.35
Flash Pt. [5]: 84 °F
Distribution ratio ([5]; 100 psig): 1.1
Distribution ratio ([5]; 200 psig): 1.9
Distribution ratio ([5]; 600 psig): 2.0
pKa ([5]; second of two pKa values, read-out: Basicity (pKa), second value): 8.2
pKa ([5]; single or first pKa, read-out: Basicity (pKa)): 10
Compound: CN(C)CCCN [DMAPA, N,N-dimethyl-1,3-propanediamine]
concentration of DMA and TMA with time on DMAPA addition ([4]; 22 to 94 hrs.): steadily increasing concentration of DMA and TMA with time

Compound: CN [MA, methylamine]
formation from DMAPA [8]: confirmed

decomposition at boiler conditions ([8]; temperature and pressure common to a typical boiler/condensate steam system): do not decompose
stability at boiler conditions ([7]; 1500 psig): essentially stable
% Decomposition ([7]; 1500 psig, feedwater 61 ppm): 4.9%
Steam concentration ([7]; 1500 psig, feedwater 61 ppm): 58 ppm
% Decomposition ([7]; 2500 psig, feedwater 61 ppm): 24.6%
Steam concentration ([7]; 2500 psig, feedwater 61 ppm): 46 ppm
Compound: COCCCN [MOPA, methoxypropylamine]

Compound: C1COCCN1 [Morpholine]
Distribution ratio ([9]; at atmospheric pressure): 0.4

Compound: CN(C)C [TMA, trimethylamine]
volatility relative to DMAPA [3]: significantly more volatile than DMAPA
Feedwater composition ([4]; 22 hrs., sample 12): 9 ppm
Feedwater composition ([4]; 46 hrs., sample 13): 16 ppm
Feedwater composition ([4]; 79 hrs., sample 14): 25 ppm
Feedwater composition ([4]; 94 hrs., sample 15): 32 ppm
Flash Pt. [5]: 20 °F
times more volatile than cyclohexylamine ([1]; at boiler pressures from 100 to 1500 psig): 2-5 times

Compound: N [ammonia]
Distribution ratio ([9]; at atmospheric pressure): 10.0

Compound: O=C=O [carbon dioxide]
Distribution ratio ([9]; depending upon temperature): ≥ 100

Compound: NC1CCCCC1 [cyclohexylamine]
Distribution ratio ([9]; at atmospheric pressure): 4.0

Compound: CC(O)CN(C)C (centres unmarked) [dimethylisopropanol amine]
Distribution ratio ([9]; at atmospheric pressure): 1.7

Compound: dimethylaminopropanol [DMAP]
formation from DMAPA [8]: confirmed

— patent publication US5368775A, “Corrosion control composition and method for boiler/condensate steam system” (priority 1993, dated 1994)
